Entries after “also recorded” stand apart in the source; their conditions may differ.
Biological target: T1, MIF tautomerase (Homo sapiens, UniProt P14174)
T1 construct: host or cells: E. coli BL21
T1 sequence (P14174 2-115 limits assumed): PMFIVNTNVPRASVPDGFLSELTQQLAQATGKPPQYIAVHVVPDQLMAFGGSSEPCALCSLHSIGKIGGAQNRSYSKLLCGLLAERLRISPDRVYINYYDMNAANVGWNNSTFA
Experiment: MIF tautomerase inhibition assay
Assay type: biochemical
Conditions: panel of 25 potential inhibitors, 100 μM (FIG. 1, FIG. 3)
Description: Human recombinant MIF was purified as per Bernhagen et al. (Biochemistry, 1994. 33(47): p. 14144-55). Briefly, BL21 E. coli cells expressing the pET11b-MIF construct were grown to an absorbance at 600 nm (OD) of […]. Isopropyl 1-thio-P-D-galactopyranoside (IPTG) (Sigma—cat no. 16758) was added to a final concentration of 1 mM to induce expression of the MIF gene and incubated for another 3 hours. Bacteria were then harvested by centrifugation and the cell pellets were then frozen. Protein purification was then out sourced to Scottish Biomedical, where the bacterial pellets were thawed and resuspended in 3 ml of Tris-buffered saline. The bacteria were then lysed by adding an equivalent number of glass beads and vortexing strongly for 10 minutes. Glass beads were removed by centrifugation at 1000 g for 10 minutes and the bacterial extract was centrifuged at 1000 g for a further 30 minutes. The supernatant was then sterile-filtered through a […] membrane filter and put through a MONO Q anion exchange chromatography column. MIF was eluted using Tris-buffered saline in the first flow-through fractions and pooled and placed on ice. These pooled fractions were then applied to a C8-SepPak reverse phase column. Unbound material was eluted by washing with water and 20% acetonitrile/water. MIF was then eluted using 6 column volumes of 60% acetonitrile/water. This sample was then renatured by dissolving MIF at a concentration of […] in 20 mM sodium phosphate buffer containing 8M urea and 5 mM DTT and dialysed against 20 mM sodium phosphate buffer. […]
L-dopachrome methyl ester was prepared at 2.4 mM through oxidation of L-3,4-dihydroxyphenylalanine methyl ester with sodium periodate. The solution was mixed well and placed at room temperature for 5 minutes before being placed on ice in the dark. 100 ng of rMIF was added to each of the Tautomerase Inhibitors or ISO-1 at a number of concentrations (1, 50 and 100 μM) with substrate. The decrease in absorbance was measured with a spectrophotometer at 475 nm every 10 seconds for 10 minutes.
The rate of the reaction of rMIF and substrate alone was measured over time at 475 nm. This was compared to the rate of this reaction with the addition of 100 μM of each of the inhibitors. Inhibition was calculated as the percentage in the reduction of the rate of change with the addition of the inhibitor averaged over five minutes.

Structure (SMILES): Cc1ccccc1-c1cc2ccccc2c(=O)o1 [TI 19]
- inhibition of MIF tautomerase enzymatic activity, in words: highest percentage inhibition of MIF enzymatic activity; also recorded: significantly more potent than the commercially available small molecule MIF inhibitor ISO-1
